Data on 24 molecules can be found in ChEMBL document CHEMBL1201862, “PubChem BioAssay data set” (2004).

Among the test systems are DMS-114; DMS-273; KM-20L2; LXFL 529; M19-MEL; SNB-78; HOP-18; RXF 631; XF498.
Experiment in all cases: inhibition of tumour cell growth, NCI panel, 48 h

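Exposure lasted 48 hours, with cells grown in 96-well plates and compounds tested at five concentrations. GI50 is the concentration that inhibits growth by half.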 Activity calls are given as the source filed them. Cut-off read from the data, not from the text of the source: active = GI50 up to about 1.1 µM and inactive = higher.

As to `O=C(CC(=O)C(F)(F)F)c1csc2ccccc12`, the GI50 was 31 µM (inactive) in the assay with DMS-114; 25 µM (inactive) in the assay on DMS-273; 39.3 µM (inactive) with KM-20L2; 21.7 µM (inactive) in the assay with LXFL 529; 32.8 µM (inactive) in the assay with M19-MEL; 37.4 µM (inactive) in the assay with SNB-78.
Turning to `COC1OC(COCc2ccc(Cl)cc2)C(OCc2ccc(Cl)cc2)C1O` (stereo not drawn), the GI50 in the assay with DMS-114 is 13.7 µM (inactive); in the assay on DMS-273, 17.3 µM (inactive); in the assay on HOP-18, 12.8 µM (inactive); in the assay with KM-20L2, 17.3 µM (inactive); in the assay on LXFL 529, 18.4 µM (inactive); with M19-MEL, 19.2 µM (inactive). Further, the figures for the GI50 in the assay with RXF 631 and in the assay with XF498 were 16.2 µM (inactive) and 3.07 µM (inactive), respectively.
Consider `CC(C)=CC(=O)C1c2cccc(O)c2C(=O)c2c(O)cc(C)cc21` (stereo not drawn), for which the GI50 was 1.79 µM (inactive) with DMS-114; 3.48 µM (inactive) with DMS-273; 2.15 µM (inactive) in the assay on HOP-18; 4.86 µM (inactive) in the assay with KM-20L2; 2.04 µM (inactive) in the assay with LXFL 529; 1.81 µM (inactive) in the assay with M19-MEL. For the same molecule, the GI50 in the assay on SNB-78 is 2.86 µM (inactive); in the assay with XF498, 1.54 µM (inactive).
For the molecule `N#CC(C(=O)/C(=N/N)C(C#N)c1ccc(Cl)cc1)c1ccc(Cl)cc1` (stereo not drawn), the GI50 with DMS-114, in the assay with HOP-18, in the assay with KM-20L2, in the assay on LXFL 529, with M19-MEL and in the assay with RXF 631 was > 100 µM (inactive) throughout. The GI50 is > 100 µM (inactive) with SNB-78 and 57.3 µM (inactive) in the assay on XF498.
On to `C=C(COC(C)=O)CC(/C=C(\C)CCC=C(C)C)OC(C)=O` (stereo not drawn), for which the GI50 in the assay on DMS-114, with DMS-273, in the assay on KM-20L2, in the assay with LXFL 529, in the assay on M19-MEL and with SNB-78 was > 100 µM (inactive) in each case. In addition, the GI50 with XF498 is 47.6 µM (inactive).
Consider `CCCCCCC(C)OC(=O)/C=C(\CC(=O)OC(C)CCCCCC)C(=O)OC(C)CCCCCC` (stereo not drawn), for which the GI50 in the assay on DMS-114, in the assay on DMS-273, with KM-20L2, with LXFL 529, in the assay with M19-MEL and with SNB-78 was > 100 µM (inactive) in each case.
With `OC/C=C(\I)CCCOCOCc1ccccc1`, the GI50 in the assay with DMS-114 is 22.8 µM (inactive); with DMS-273 it was 21.8 µM (inactive); in the assay with KM-20L2, 29.5 µM (inactive); in the assay with LXFL 529, 48.9 µM (inactive); in the assay on M19-MEL, 32.1 µM (inactive); in the assay on SNB-78, 25.6 µM (inactive). In addition, the GI50 with XF498 was 14 µM (inactive).
For `C=C(CS(=O)(=O)c1ccccc1)[P+](c1ccccc1)(c1ccccc1)c1ccccc1`, the GI50 with DMS-114 was 21.6 µM (inactive); in the assay with DMS-273 it was 16.4 µM (inactive); in the assay with KM-20L2, 17.5 µM (inactive); in the assay with M19-MEL it was 17.3 µM (inactive); in the assay with SNB-78, 38 µM (inactive); in the assay with XF498 it was 15 µM (inactive).
In the case of `Cc1cc(C(=C2C=CC(=N)C=C2)c2ccc(N)cc2)ccc1N` [FUCHSIN, BASIC], the GI50 in the assay on DMS-114 was 1.31 µM (inactive); with KM-20L2, 3.77 µM (inactive); with LXFL 529, 1.03 µM (active); with M19-MEL, 4.21 µM (inactive); with SNB-78, 2.76 µM (inactive); in the assay with XF498, 2.77 µM (inactive).
For `Cc1nc2sccn2c1C(=O)NNC(N)=S`, the GI50 in the assay with DMS-114, with DMS-273, in the assay on HOP-18, with KM-20L2 and in the assay on LXFL 529 was > 100 µM (inactive) throughout.
With `CCOc1ncnc2ccc(Cl)c(I)c12`, the GI50 is 45.1 µM (inactive) in the assay on DMS-114; > 100 µM (inactive) with DMS-273; > 100 µM (inactive) with KM-20L2; 81.1 µM (inactive) in the assay with LXFL 529; > 100 µM (inactive) with M19-MEL; 45.4 µM (inactive) with XF498.
For `O=C1Nc2nc3ccccc3n2N=C2CCCC12` (stereo not drawn), the GI50 in the assay with DMS-114, in the assay with DMS-273, with KM-20L2, in the assay with LXFL 529, in the assay with M19-MEL and in the assay with RXF 631 was > 100 µM (inactive) throughout. The GI50 with SNB-78 and in the assay on XF498 was > 100 µM (inactive) in each case.
With `O=C(NC(=O)c1ccccc1[N+](=O)[O-])Nc1ccc(Oc2ncc(Cl)cn2)c(C(F)(F)F)c1`, the GI50 in the assay with DMS-114 is < 0.01 µM (active); in the assay with DMS-273, < 0.01 µM (active); with HOP-18 it was 53.1 µM (inactive); in the assay with KM-20L2, < 0.0125 µM (active); in the assay with LXFL 529, < 0.01 µM (active); with M19-MEL, < 0.0171 µM (active). The GI50 with SNB-78 was < 0.01 µM (active); with XF498 it was 0.0103 µM (active).
For `Cc1nc2ccccc2c(=O)n1NC(=S)Nc1ccccc1`, the GI50 in the assay on DMS-114 was 71.1 µM (inactive); in the assay with DMS-273 it was > 100 µM (inactive); in the assay with HOP-18, > 100 µM (inactive); in the assay on LXFL 529 it was > 100 µM (inactive); in the assay with M19-MEL, > 100 µM (inactive).
Regarding `COC12OCCN(CCO)C1=CC(=O)C1(C)N=NC(C)C12` (stereo not drawn), the GI50 in the assay on DMS-114, in the assay with DMS-273, with HOP-18, in the assay on LXFL 529, with M19-MEL and with RXF 631 was > 100 µM (inactive) throughout. Also, the GI50 with SNB-78 was > 100 µM (inactive).
Regarding `Clc1ccccc1C1SCc2nc3ccccc3n21` (stereo not drawn), the GI50 is < 0.01 µM (active) in the assay with HOP-18; 26.4 µM (inactive) in the assay on LXFL 529; 33 µM (inactive) in the assay with M19-MEL; 17.1 µM (inactive) in the assay with SNB-78; 30.3 µM (inactive) in the assay with XF498.
Regarding `COc1ccc2nc(NC(=O)C(=O)CC(=O)c3ccc(Cl)cc3)sc2c1`, the GI50 is > 100 µM (inactive) in the assay on DMS-114; > 100 µM (inactive) in the assay with DMS-273; 78.2 µM (inactive) in the assay with HOP-18; 71.3 µM (inactive) in the assay with KM-20L2; > 100 µM (inactive) in the assay with LXFL 529; > 100 µM (inactive) with M19-MEL. Further, the GI50 with SNB-78 was > 100 µM (inactive); in the assay with XF498, 46.9 µM (inactive).
As for `CSCC1CC(c2ccc(Cl)cc2)=NO1` (stereo not drawn), the GI50 in the assay with DMS-114, with DMS-273, with HOP-18, in the assay on KM-20L2, with LXFL 529 and in the assay on M19-MEL was > 100 µM (inactive) each time. Moreover, the GI50 in the assay on RXF 631 and with SNB-78 was > 100 µM (inactive) in each case.
For the molecule `COC(=O)C(=O)OC1(C(C)=O)CC2(c3ccccc3)OC1(c1ccccc1)c1ccccc12` (stereo not drawn), the GI50 in the assay on DMS-114 is 15.1 µM (inactive); in the assay with DMS-273, 15.2 µM (inactive); with HOP-18 it was 52.8 µM (inactive); with KM-20L2, 15.6 µM (inactive); in the assay with LXFL 529 it was 19.8 µM (inactive); in the assay with M19-MEL, 16.9 µM (inactive). For the same molecule, the figures for the GI50 in the assay on RXF 631, with SNB-78 and in the assay with XF498 were 23.1 µM (inactive), 27.8 µM (inactive) and 16.4 µM (inactive), respectively.
Consider `O=c1oc2c3ccc4ccccc4c3n(CCN3CCOCC3)c2c2ccccc12`, for which the GI50 was > 100 µM (inactive) in the assay on DMS-114; > 100 µM (inactive) in the assay with HOP-18; > 100 µM (inactive) in the assay with KM-20L2; > 100 µM (inactive) in the assay on LXFL 529; 3.76 µM (inactive) with M19-MEL.
In the case of `O=C1c2ccccc2N2Oc3ccccc3C12c1ccccc1` (stereo not drawn), the GI50 with DMS-114, in the assay on DMS-273, in the assay with HOP-18, in the assay on KM-20L2, with LXFL 529 and in the assay with M19-MEL was > 100 µM (inactive) in each case. For the same molecule, in the assay with SNB-78, the GI50 was > 100 µM (inactive).
As to `CCOC(=N)CC(=O)c1ccccc1`, the GI50 in the assay with DMS-114, in the assay with DMS-273, in the assay on HOP-18, with KM-20L2, in the assay with LXFL 529 and in the assay on M19-MEL was > 100 µM (inactive) each time. Also, the GI50 in the assay on SNB-78 and in the assay with XF498 was > 100 µM (inactive) in each case.
With `C=C1C(=O)OC2/C=C(\CO)C(OC(C)=O)CC(O)/C(C)=C/C(OC(=O)C(C)CC)C12` (stereo not drawn), the GI50 was 23.6 µM (inactive) in the assay with DMS-114; 19.1 µM (inactive) with DMS-273; 23.8 µM (inactive) with HOP-18; 22.4 µM (inactive) in the assay on KM-20L2; 13.9 µM (inactive) with LXFL 529; 16.8 µM (inactive) with M19-MEL. For the same molecule, the GI50 with RXF 631 was 33.5 µM (inactive); in the assay on SNB-78, 16.3 µM (inactive); with XF498, 15.8 µM (inactive).
Consider `CCC(C)C(=O)O[C@H]1C(=O)O[C@@H]2C[C@H]3C(C)=CC(=O)[C@@H](O)[C@]3(C)[C@H]3[C@@H](O)[C@H](O)[C@@]4(C)OC[C@]32[C@@H]14` (stereo partly drawn), for which the GI50 was 0.0152 µM (active) in the assay with DMS-114; 0.019 µM (active) with DMS-273; 0.158 µM (active) with HOP-18; 0.0468 µM (active) in the assay with KM-20L2; 0.0103 µM (active) in the assay on LXFL 529; 0.0269 µM (active) with M19-MEL. Moreover, the figures for the GI50 with SNB-78 and with XF498 were 0.0323 µM (active) and 0.0208 µM (active), respectively.
